{"source": "paper PMC5827532", "about": "“Triphenylphosphonium Moiety Modulates Proteolytic Stability and Potentiates Neuroprotective Activity of Antioxidant Tetrapeptides in Vitro” (Frontiers in Pharmacology, 2018)", "key": {"PC-12 cells [1]": {"tested_on": "PC-12 cells", "procedure": "(§1) PC-12 cells were subjected to oxidative damage by CoCl2, L-glutamic acid, or menadione and treated with the oligopeptides as follows. Briefly, the pre-grown cells were seeded in a 96-well plate at a density of 60 000 cells per well and cultured overnight in FBS-containing α-MEM. Next day, the medium was replaced by a fresh one without FBS, and further manipulations were performed in FBS-free medium. The oxidative agents and oligopeptides were supplemented to the medium in three ways: (i) the cells were pre-cultured in the presence of oligopeptides for 24 h, then the medium was replaced by a fresh one supplemented with a damaging factor and the cells were further cultured with the factor for 24 h (CoCl2, L-glutamic acid) or 3 h (menadione) (‘pretreatment’); (ii) the damaging factor and oligopeptide were added together to cells and cultured for 24 h (CoCl2, L-glutamic acid) or 3 h (menadione) followed by medium replacement (‘cotreatment’); (iii) following treatment with menadione, the cells were additionally cultured with the oligopeptides for 24 h (‘posttreatment’). The concentration of compounds was as follows: oligopeptides 5 mM, CoCl2 2.5 mM, L-glutamic acid 50 mM, menadione 25 μM.\n(§2) Eventually, viability of the treated cells was evaluated with the use of MTS assay (Promega) on an Infinite M200 PRO microplate analyzer (TECAN). The cell viability was presented as a percentage of that of the control cells cultured in the absence of compounds (100% viability)."}, "trypsin": {"molecular_target": "T1, trypsin (Sus scrofa, UniProt P00761)", "T1 construct": "purchased PanEco company (Russia); host or cells: porcine pancreas", "T1 sequence (P00761 9-231)": "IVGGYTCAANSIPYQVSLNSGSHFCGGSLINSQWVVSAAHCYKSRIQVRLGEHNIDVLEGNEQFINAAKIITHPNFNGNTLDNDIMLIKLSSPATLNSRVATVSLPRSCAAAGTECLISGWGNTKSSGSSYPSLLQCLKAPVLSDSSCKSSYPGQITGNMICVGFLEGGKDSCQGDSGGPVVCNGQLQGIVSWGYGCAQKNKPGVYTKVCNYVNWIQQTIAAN", "assay": "Tryptic cleavage of oligopeptides followed by reversed-phase HPLC", "assay_type": "in vitro ADME, porcine", "conditions": "trypsin 5 μg/mL, PBS pH 7.4; for half-life at 0.5 mg/mL: pig, oligopeptide 0.5 mg/mL, read-out: 50% degradation rate (DR50)", "procedure": "The reaction mixture containing an oligopeptide (0.5 mg/mL) and trypsin (5 μg/mL) in phosphate buffered saline (PBS, pH 7.4) was incubated for different time intervals, and aliquots of digestion products were collected for reversed-phase high-performance liquid chromatography (HPLC). HPLC analysis was carried out on a Dionex UltiMate 3000 system (Thermo Scientific) using a Kromasil C18 column, 5 μm, 4.6 mm × 150 mm (AkzoNobel). Mobile phase contained (A) acetonitrile with 0.1% trifluoroacetic acid, (B) milli-Q water with 0.1% trifluoroacetic acid. Gradient scheme was as follows, 0–10 min: from 100% A to 100% B, 10–20 min: 100% A to 100% B, 20–25 min: 100% B. Flow rate was 0.5 mL/min; injection volume was 10 μL. The detection was performed at wavelengths of 220 and 260 nm. Chromatographic data were collected and treated with the aid of Chromeleon 6.80 software (Thermo Scientific). Peak height of the uncleaved oligopeptides was measured to calculate remaining concentration of the oligopeptides after tryptic cleavage. Concentration values were presented as mean ± SD (n = 3).\nEnzymatic cleavage of the oligopeptides was performed in PBS solution using pancreatic trypsin as a pharmacologically relevant endopeptidase ([Vlieghe et al., 2010]; [Danial et al., 2012]). To compare proteolytic resistance of the initial and TPP-modified oligopeptides, the reaction conditions were optimized to provide a relatively slow kinetics. The concentration of uncleaved oligopeptides was detected by means of HPLC. In the absence of trypsin, both the unmodified tetrapeptides and TPP derivatives were stable during at least 48 h incubation at ambient temperature."}, "Dynamic light scattering": {"assay": "Dynamic light scattering", "assay_type": "physicochemical", "conditions": "data not shown"}, "[2]": {"assay": "Fenton-like CoCl2/H2O2 reaction, ROS detected with DCFDA probe", "procedure": "Fenton-like reaction was initiated by mixing 0.2 mM cobalt chloride (CoCl2) and 22 mM hydrogen peroxide (H2O2) in PBS and carried out for 60 min in the presence of or without a serially diluted oligopeptide. ROS generated in the Fenton reaction were detected by using DCFDA fluorescent probe (5 μM) at λex = 488 nm and λem = 535 nm. The effect of oligopeptides was measured as a percentage of ROS generation rate in the control reaction without effectors (100%) ([Akhmadishina et al., 2017])."}, "[3]": {"tested_on": "human skin fibroblasts (HSF)", "assay": "MTT proliferation (cytotoxicity) assay", "assay_type": "cell-based", "procedure": "(§3) PC-12 rat pheochromocytoma cell line (ATTC) and human skin fibroblasts (HSF) were used. HSF were isolated as detailed in ([Tsepaeva et al., 2017]). The cells were cultured aseptically in α-MEM containing 10% fetal bovine serum (FBS), 2 mM L-glutamine, 100 U/mL penicillin and 100 μg/mL streptomycin at 37°C in humidified air atmosphere with 5% CO2.\n(§4) The cytotoxicity of the oligopeptides was evaluated in the concentration range from 1 μM to 3.2 mM by means of the MTT proliferation assay in 96-well microplates as described in [Tsepaeva et al. (2017)]. The cell viability was presented as a percentage of control cells grown without compounds (100% viability value). Half-maximal inhibitory concentrations (IC50) were calculated from cell viability curves using OriginPro 8.0 software."}, "PC-12 cells [4]": {"tested_on": "PC-12 cells", "assay": "MTT proliferation (cytotoxicity) assay", "assay_type": "cell-based, rat", "conditions": "over the whole concentration range (1 μM to 3.2 mM)", "procedure": "as §3, §4"}, "PC-12 cells [5]": {"tested_on": "PC-12 cells", "assay": "Cytoprotection against menadione-induced damage (MTS assay)", "conditions": "for protective effect: pretreatment 24 h, 5 mM, menadione 25 μM", "procedure": "(§5) PC-12 cells were subjected to oxidative damage by CoCl2, L-glutamic acid, or menadione and treated with the oligopeptides as follows. Briefly, the pre-grown cells were seeded in a 96-well plate at a density of 60 000 cells per well and cultured overnight in FBS-containing α-MEM. Next day, the medium was replaced by a fresh one without FBS, and further manipulations were performed in FBS-free medium.\nas §2"}, "PC-12 cells [6]": {"tested_on": "PC-12 cells", "assay": "Cytoprotection against L-glutamic acid-induced damage (MTS assay)", "conditions": "50 mM LGlu", "procedure": "as §1, §2"}, "[7]": {"assay": "Cytoprotection against L-glutamic acid-induced damage (MTS assay)", "conditions": "rat", "procedure": "as §1, §2"}, "PC-12 cells [8]": {"tested_on": "PC-12 cells", "assay": "H2O2-induced oxidative stress in cells (DCFDA fluorescence)", "assay_type": "cell-based, rat", "conditions": "5 mM, 1 h, 100 mM H2O2, HBSS", "procedure": "PC-12 cells were seeded in a 96-well plate and allowed to form a subconfluent monolayer. The cells were washed with Hank’s balanced salt solution (HBSS), pre-stained with 20 μM DCFDA and rewashed with HBSS two times. The oxidative stress in the stained cells was induced by incubating them in HBSS solution containing 100 mM H2O2 for 1 h in CO2-incubator. The synthesized oligopeptides or glutathione were added to the extracellular solution in the concentration range from 1 to 10 mM in HBSS and incubated for 1 h. The bottom fluorescent signal was acquired from the treated cells on an Infinite M200PRO microplate analyzer (TECAN) at λex = 488 nm and λem = 535 nm."}, "[9]": {"conditions": "same reaction; ref Akhmadishina et al., 2017; cited from earlier work"}, "[10]": {"tested_on": "prostate cancer (PC-3) cells", "conditions": "same supplementation; ref Akhmadishina et al., 2017; cited from earlier work"}, "[11]": {"assay": "Cytoprotection against menadione-induced damage (MTS assay)", "conditions": "rat, PC-12 cells", "procedure": "as §5, §2"}}, "note": "Like-named read-outs stand apart in the source and are kept apart here."}
{"smiles": "N=C(N)NCCC[C@H](NC(=O)[C@H](Cc1ccc(O)cc1)NC(=O)CCCCC[P+](c1ccccc1)(c1ccccc1)c1ccccc1)C(=O)N[C@@H](Cc1ccccc1)C(=O)N[C@@H](CCCCN)C(N)=O", "note": "[TPP-6-YRFK-NH2]", "values": [{"measurement": "cell viability", "setting": "PC-12 cells [1]; rat", "value": "~126", "unit": "%"}, {"measurement": "half-life at 0.5 mg/mL", "setting": "trypsin; pancreatic trypsin in PBS", "value": "~1.17", "unit": "h"}, {"measurement": "time during which cleavage was initially retarded", "setting": "trypsin", "value": "approximately 60 min"}, {"measurement": "aggregative properties", "setting": "Dynamic light scattering", "value": "formed well-defined submicron aggregates"}, {"measurement": "concentrations at which the inhibitory effect toward the reaction was observed", "setting": "[2]; 0.2 mM CoCl2, 22 mM H2O2, PBS", "value": "> 250", "unit": "µM"}, {"measurement": "EC50", "setting": "[2]; ROS generation in CoCl2/H2O2 reaction, read-out: half-maximal inhibitory concentration (EC50)", "value": "500 ± 25", "unit": "µM"}, {"measurement": "concentration at which cell proliferation was decreased", "setting": "[3]; effect disappeared in lower and higher concentration ranges", "value": "around 100 μM"}, {"measurement": "increase of proliferation", "setting": "PC-12 cells [4]", "value": "up to 20%"}]}
{"smiles": "N=C(N)NCCC[C@@H](NC(=O)[C@H](Cc1ccc(O)cc1)NC(=O)CCCCC[P+](c1ccccc1)(c1ccccc1)c1ccccc1)C(=O)N[C@@H](Cc1ccccc1)C(=O)N[C@@H](CCCCN)C(N)=O", "note": "[TPP-6-YrFK-NH2]", "values": [{"measurement": "protective effect", "setting": "PC-12 cells [5]", "value": "effectively prevented cell damage"}, {"measurement": "reaction time without any degradation", "setting": "trypsin", "value": "at least 17 h"}, {"measurement": "aggregative properties", "setting": "Dynamic light scattering", "value": "formed well-defined submicron aggregates"}, {"measurement": "protective effect", "setting": "PC-12 cells [6]; pretreatment, supplemented 24 h prior to damage", "value": "completely prevented cell damage"}, {"measurement": "half-maximal inhibition of proliferation", "setting": "[3]; MTT, 3 days", "value": "millimolar concentrations"}]}
{"smiles": "N=C(N)NCCC[C@H](NC(=O)[C@@H](N)Cc1ccc(O)cc1)C(=O)N[C@@H](Cc1ccccc1)C(=O)N[C@@H](CCCCN)C(N)=O", "note": "[YRFK-NH2]", "values": [{"measurement": "half-life at 0.5 mg/mL", "setting": "trypsin; isolated enzyme trypsin", "value": "~6.17", "unit": "h"}]}
{"smiles": "N=C(N)NCCC[C@H](NC(=O)[C@H](Cc1ccc(O)cc1)NC(=O)CC[P+](c1ccccc1)(c1ccccc1)c1ccccc1)C(=O)N[C@@H](Cc1ccccc1)C(=O)N[C@@H](CCCCN)C(N)=O", "note": "[TPP-3-YRFK-NH2]", "values": [{"measurement": "half-life at 0.5 mg/mL", "setting": "trypsin; pancreatic trypsin in PBS", "value": "~0.767", "unit": "h"}, {"measurement": "extent of cleavage before plateau", "setting": "trypsin", "value": "~80", "unit": "%"}]}
{"smiles": "N[C@@H](CCC(=O)O)C(=O)O", "note": "[^LGlu, L-glutamic acid]", "values": [{"measurement": "viability at 24 h, 50 mM", "setting": "[7]", "value": 37.1, "unit": "%"}]}
{"smiles": "[Cl-].[Cl-].[Co+2]", "note": "[CoCl2, cobalt (II) chloride]", "values": [{"measurement": "cell viability, damaging factor alone", "setting": "PC-12 cells [1]; CoCl2 2.5 mM, 24 h", "value": 55, "unit": "%"}]}
{"smiles": "NCCCC[C@H](NC(=O)[C@H](Cc1ccccc1)NC(=O)[C@@H](CCCN=C(N)N)NC(=O)[C@@H](N)Cc1ccc(O)cc1)C(N)=O", "note": "[YrFK-NH2]", "values": [{"measurement": "half-life at 0.5 mg/mL", "setting": "trypsin; isolated enzyme trypsin", "value": "~14.6", "unit": "h"}]}
{"smiles": "N[C@@H](CCC(=O)N[C@@H](CS)C(=O)NCC(=O)O)C(=O)O", "note": "[GSH, γ-Glu-Cys-Gly]", "values": [{"measurement": "effect on cell damage", "setting": "PC-12 cells [1]; cotreatment, 5 mM, CoCl2 2.5 mM", "value": "insignificantly diminished cell damage"}, {"measurement": "protective effect", "setting": "PC-12 cells [1]; pretreatment 24 h, 5 mM, CoCl2 2.5 mM", "value": "did not exhibit a protective effect"}, {"measurement": "viability at 5000 µM", "setting": "PC-12 cells [5]; Rattus norvegicus, PC-12, 24 h, read-out: cell viability", "value": 32, "unit": "%"}, {"measurement": "protective effect", "setting": "PC-12 cells [5]", "value": "not when applied prior to the treatment"}, {"measurement": "protective effect", "setting": "PC-12 cells [6]; 5 mM", "value": "relatively low protective effect"}, {"measurement": "effect on DCFDA signal", "setting": "PC-12 cells [8]", "value": "almost completely decreased the signal"}, {"measurement": "EC50", "setting": "[9]", "value": "544 ± 39", "unit": "µM"}, {"measurement": "effect on proliferation", "setting": "[10]", "value": "greatly stimulated proliferation"}]}
{"smiles": "CC1=CC(=O)c2ccccc2C1=O", "note": "[Men, menadione]", "values": [{"measurement": "viability at 3 h, 25 μM", "setting": "[11]", "value": "~17", "unit": "%"}]}
